Measurements as given in patent US5618814A, “Trisubstituted pyrimido [5,4-d] pyrimidines for modulating multi-drug resistance and pharmaceutical compositions containing these compounds” (Dr. Karl Thomae GmbH, priority 1993, dated 1997).
Where two headings read alike, the source gives them in different places.

How the values were obtained:
[1] = tested on: adriamycin-resistant S 180 mouse sarcoma cells; experiment: Cytotoxicity in proliferating adriamycin-resistant S 180 mouse sarcoma cells (MTT, 6 days) in the absence or presence of adriamycin; format: cell-based; conditions: S-180, 144 h
Procedure: was tested on cells resistant to adriamycin as follows:
Proliferating, adriamycin-resistant S 180 mouse sarcoma cells were cultivated for six days in the presence of various concentrations of test substances. Concentrations of the test substances with a cytotoxic or cytostatic effect were indicated by reduced cell growth or by the cells dying off. The end point of the assay is the number of living cells per culture which is determined indirectly, making use of the property of vital cells to reduce the dye MTT [=3-(4,5-dimethylthiazol-2-yl)-2,5-diphenyltetrazoliumbromide] to coloured formazane. The IC50 denotes the concentration of a test substance which reduces the number of vital cells per culture vessel to 50% of the untreated control. […] Therefore, two IC50 values are obtained for each test substance, one in the presence of adriamycin (IC50 ADR), the other in the absence of adriamycin (IC50). The difference in the logarithms (to the base ten) of the two IC50 values: Δ=lgIC50-lgIC50 ADR is a measure of the increase in the cytotoxicity of the test substance brought about by adriamycin.
Exponentially growing adriamycin-resistant or adriamycin-sensitive S 180 cells were plated out in 96-well flat-bottomed microtitre dishes at a rate of 2000 cells per well in 100 μl of growth medium (RPMI-1640 containing 10% foetal calf serum). The culture dishes were incubated in an incubator at 37° C., 5% CO2 at 100% relative humidity. After 24 hours, 50 μl of growth medium containing various concentrations of test substance and 50 μl of growth medium with or without adriamycin were added to each well. Following a further 6-day cultivation period, 50 μl of tetrazolium salt solution [5 mg of 3-(4,5-dimethylthiazol-2-yl)-2,5-diphenyl-tetrazoliumbromide per ml of phosphate-buffered saline solution, diluted 1:5 (v/v) with RPMI-1640 before use] were pipetted into each well. After […] incubation the culture medium was carefully suction filtered and the formazane formed intracellularly was solubilised with 150 μl of dimethylsulphoxide per well. The dishes were briefly shaken and the optical density was measured at 570 nm with a photometer such as a Dynatech MR-600 apparatus. The formation of the coloured formazane by reduction of the tetrazolium salt is proportional to the number of living cells. The averages of three measurements were used to calculate the IC50 values (dilution stage: 1:2).

[2] = Tolerability after i.v. administration in mice; format: in vivo; conditions: 100 mg/kg i.v. in mice
[3] = Adriamycin 0 ng/ml (absence of adriamycin), read-out: IC50
[4] = in presence of Adriamycin 100 ng/ml, read-out: IC50 (IC50 ADR)

Compound	IC50 [1, 3]	IC50 [1, 4]	toxic side effects / tolerability [2]
CN(Cc1ccccc1)c1ncnc2c(N3CCOCC3)nc(N3CCC(N4CCCCC4)CC3)nc12 [Substance D, 8-(N-benzyl-N-methyl-amino)-2-[4-(piperidino)-piperidin-1-yl]-4-morpholino-pyrimido [5,4-d]pyrimidine]	3 µg/mL	0.3 µg/mL	
COc1cc2c(cc1OC)CN(c1ncnc3c(N4CCOCC4)nc(N4CCC(N(C)C)CC4)nc13)CC2 [Substance G, 2-[4-(N,N-dimethylamino)-piperidino]-8-(6,7-dimethoxy-1,2,3,4-tetrahydro-isoquinolin-2-yl)-4-morpholino-pyrimido [5,4-d]pyrimidine]	3 µg/mL	0.1 µg/mL	did not lead to any detectable toxic side effects
CN(C)C1CCN(c2nc(N3CCOCC3)c3ncnc(N(CCCNC(=O)c4ccccc4)Cc4ccccc4)c3n2)CC1 [Substance J, 2-[4-(N, N-dimethylamino)-piperidino]-8-[N-benzyl-N-(3-benzoylaminopropyl)-amino]-4-morpholino-pyrimido-[5,4-d]pyrimidine]	3 µg/mL	0.1 µg/mL	
CN(Cc1ccccc1)c1nc(N2CCC(NCC(c3ccccc3)c3ccccc3)CC2)nc2c(N3CCOCC3)ncnc12 [Substance I, 2-[4-(2,2-diphenylethylamino)-piperidino]-4-(N-benzyl-N-methyl-amino)-8-morpholino-pyrimido-[5,4-d]pyrimidine]	10 µg/mL	0.3 µg/mL	
CN(Cc1ccccc1)c1ncnc2c(N3CCOCC3)nc(N3CCC(N(C)C)CC3)nc12 [Substance A, 2-[4-(N,N-dimethylamino)-piperidino]-8-(N-benzyl-N-methyl-amino)-4-morpholino-pyrimido [5,4-d]pyrimidine]	1 µg/mL	0.3 µg/mL	
CN(Cc1ccccc1)c1ncnc2c(N3CCCCC3)nc(N3CCC(N(C)C)CC3)nc12 [Substance C, 2-[4-(N,N-dimethylamino)-piperidino]-8-(N-benzyl-N-methyl-amino)-4-piperidino-pyrimido [5,4-d]pyrimidine]	2 µg/mL	0.3 µg/mL	
CN(Cc1cccc2ccccc12)c1nc(N2CCC(N(C)C)CC2)nc2c(N3CCOCC3)ncnc12 [Substance K, 2-[4-(N,N-dimethylamino)-piperidino]-4-[N-(naphth-1-yl-methyl)-N-methyl-amino]-8-morpholino-pyrimido-[5,4-d]pyrimidine]	3 µg/mL	0.1 µg/mL	
CN(Cc1cccc2ccccc12)c1ncnc2c(N3CCOCC3)nc(N3CCC(N(C)C)CC3)nc12 [Substance H, 2-[4-(N,N-dimethylamino)-piperidino]-8-[N-(naphth-1-yl-methyl)-N-methyl-amino]-4-morpholino-pyrimido [5,4-d]pyrimidine]	3 µg/mL	0.1 µg/mL	
CN(C)CC1CCN(c2nc(N3CCOCC3)c3ncnc(N(C)Cc4cccc5ccccc45)c3n2)CC1 [Substance E, 2-[4-(N,N-dimethylaminomethyl)-piperidino]-8-[N-(napth-1-yl-methyl)-N-methyl-amino]-4-morpholino-pyrimido [5,4-d]pyrimidine]	3 µg/mL	0.1 µg/mL	
CN(Cc1ccccc1)c1nc(N2CCC(N(C)C)CC2)nc2c(N3CCOCC3)ncnc12 [Substance F, 4-(N-benzyl-methyl-amino)-2-[4-(N,N-dimethylamino)-piperidino]-8-morpholino-pyrimido [5,4-d]pyrimidine]	3 µg/mL	0.3 µg/mL	
COC(=O)NC1CCN(c2nc(N3CCOCC3)c3ncnc(N(C)Cc4ccccc4)c3n2)CC1 [Substance B]	10 µg/mL	1 µg/mL	
